For 1 compound, Max non-pyrogenic dose results are on record in patent US20180318415A1, “NOVEL ADJUVANT FORMULATIONS” (GLAXOSMITHKLINE BIOLOGICALS, SA, priority 2015, published 2018).

In this data set the test system is rabbits. Put plainly: Rabbit pyrogen test (USP<151>). Conditions: CRX-601 per kg animal body weight.

For the compound `CCCCCCCCCCC[C@H](CC(=O)NC1C(OC(=O)C[C@@H](CCCCCCCCCCC)OCCCCCCCCCC)[C@H](OP(=O)(O)O)C(CO)O[C@H]1OC[C@H](NC(=O)C[C@@H](CCCCCCCCCCC)OCCCCCCCCCC)C(=O)O)OCCCCCCCCCC` (stereo partly shown) [free CRX-601], the Max non-pyrogenic dose is 0.001 to 0.002 µg/kg.
